Experiment: xn = mol fraction of the nth substance listed

CCCO + CC[n+]1ccn(CCOC)c1.N#C[S-]
100 kPa, x2 = 0
Conditions | viscosity [mPa·s]
288.15 K | 2.49
293.15 K | 2.2
298.15 K | 1.95
303.15 K | 1.732
308.15 K | 1.545
313.15 K | 1.382
318.15 K | 1.24

CCCO + CC[n+]1ccn(CCOC)c1.O=S(=O)([O-])C(F)(F)F
101 kPa, x2 = 0
Conditions | viscosity [mPa·s]
288.15 K | 2.475
293.15 K | 2.185
298.15 K | 1.937
303.15 K | 1.723
308.15 K | 1.537
313.15 K | 1.377
318.15 K | 1.235

CCCC[n+]1ccn(C)c1.N#C[S-] + CN1CCCC1=O
viscosity [mPa·s], 101 kPa
Conditions | x1 = 0.0009705 | x1 = 0.001495 | x1 = 0.002117 | x1 = 0.002433 | x1 = 0.003004 | x1 = 0.003507 | x1 = 0.004097 | x1 = 0.00451
288.15 K | 2.139 | 2.145 | 2.153 | 2.158 | 2.163 | 2.166 | 2.172 | 2.178
298.15 K | 1.804 | 1.808 | 1.811 | 1.813 | 1.821 | 1.827 | 1.834 | 1.843
308.15 K | 1.563 | 1.575 | 1.582 | 1.586 | 1.593 | 1.604 | 1.616 | 1.623
318.15 K | 1.295 | 1.305 | 1.311 | 1.317 | 1.322 | 1.327 | 1.337 | 1.349

C[n+]1ccn(CCCCCn2cc[n+](C)c2)c1.O=S(=O)([N-]S(=O)(=O)C(F)(F)F)C(F)(F)F.O=S(=O)([N-]S(=O)(=O)C(F)(F)F)C(F)(F)F + CN1CCCC1=O
viscosity [mPa·s], 101 kPa
Conditions | 293.15 K | 303.15 K | 313.15 K | 323.15 K | 333.15 K
x1 = 0.3841 | 153.6 | 96 | 60.8 | 41.6 | 25.6
x1 = 0.5551 | 349 | 188.8 | 118.4 | 76.8 | 51.2
x1 = 1 | 1123 | 557 | 310 | 188.8 | 121.6

Reference: the CheMixHub ionic liquid set
